Laboratory results from patent US20240270821A1, “GIP/GLP1/GCG TRI-RECEPTOR AGONISTS AND USES THEREOF” (priority 2023, published 2024).
Read-outs that look alike come from different tables or passages of the source. Starred links: 1 amine or outer side, 2 acyl side, 3 side chain; linkers in the order of their positions; H or OH if unused. Non-standard residues stand in square brackets, D forms with d. Residues, ends and D or L forms follow the SMILES beside them. Groups on a side chain read outwards from the residue. *: point of attachment. C20 diacid = O=C(O)CCCCCCCCCCCCCCCCCCC(=O)*; C18 diacid = O=C(O)CCCCCCCCCCCCCCCCC(=O)*; αMePhe(2-F) = C[C@](N)(Cc1ccccc1F)C(=O)O; γGlu = O=C(O)[C@H](CCC(=O)[*:2])N[*:1]; αMe4Pal = C[C@](N)(Cc1ccncc1)C(=O)O; αMeY = C[C@](N)(Cc1ccc(O)cc1)C(=O)O; 4Pal = N[C@@H](Cc1ccncc1)C(=O)O; αMeL = CC(C)C[C@](C)(N)C(=O)O; αMeS = C[C@](N)(CO)C(=O)O; Orn = NCCC[C@H](N)C(=O)O; AEEA = NCCOCCOCC(=O)O; Aib = CC(C)(N)C(=O)O

Tests used:
Format in all cases: cell-based
[1] = biological target: human GcgR (Homo sapiens, UniProt P47871); test: Functional cAMP activity in the presence of 1% HSA; conditions: read-out: cAMP Rel EC50, hGcgR
human GcgR, sequence (P47871 26-477): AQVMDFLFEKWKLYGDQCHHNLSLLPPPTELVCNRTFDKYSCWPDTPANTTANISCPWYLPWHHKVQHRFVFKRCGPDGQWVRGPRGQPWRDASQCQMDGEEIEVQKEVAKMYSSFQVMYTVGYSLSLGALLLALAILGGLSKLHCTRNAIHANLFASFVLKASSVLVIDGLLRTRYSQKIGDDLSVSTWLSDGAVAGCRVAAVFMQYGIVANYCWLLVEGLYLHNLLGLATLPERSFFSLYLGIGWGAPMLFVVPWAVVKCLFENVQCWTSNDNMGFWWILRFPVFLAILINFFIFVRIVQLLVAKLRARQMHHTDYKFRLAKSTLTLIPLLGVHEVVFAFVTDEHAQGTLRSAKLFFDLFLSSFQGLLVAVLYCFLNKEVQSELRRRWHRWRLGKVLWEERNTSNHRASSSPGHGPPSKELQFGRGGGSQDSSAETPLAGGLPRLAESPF

[2] = biological target: T1, hGLP-1R (Homo sapiens, UniProt P43220); test: Functional cAMP activation in the presence of 0.1% casein (no HSA); conditions: read-out: Relative cAMP EC50, hGLP-1R;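 note: intracellular cAMP rise after 30 min at 37 °C read by HTRF, normalized between buffer only (0%) and maximal control ligand (100%), four-parameter variable-slope fit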
T1 sequence (P43220 24-463): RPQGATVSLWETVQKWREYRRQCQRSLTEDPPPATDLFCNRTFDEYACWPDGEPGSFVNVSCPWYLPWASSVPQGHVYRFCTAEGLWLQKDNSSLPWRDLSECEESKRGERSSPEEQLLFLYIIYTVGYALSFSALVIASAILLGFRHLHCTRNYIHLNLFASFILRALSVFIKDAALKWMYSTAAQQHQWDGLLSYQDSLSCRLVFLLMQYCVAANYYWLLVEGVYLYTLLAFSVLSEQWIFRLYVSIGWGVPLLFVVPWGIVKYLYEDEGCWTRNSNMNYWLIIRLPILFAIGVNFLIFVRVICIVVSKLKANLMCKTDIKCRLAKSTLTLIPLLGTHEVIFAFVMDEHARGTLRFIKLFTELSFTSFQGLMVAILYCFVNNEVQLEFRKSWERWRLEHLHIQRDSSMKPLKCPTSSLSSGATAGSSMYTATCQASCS

[3] = biological target: T1, hGLP-1R; test: Functional cAMP activity in the presence of 1% HSA; conditions: read-out: cAMP Rel EC50, hGLP-1R
[4] = biological target: hGcgR (Homo sapiens, UniProt P47871); test: Functional cAMP activation in the presence of 0.1% casein (no HSA); conditions: read-out: Relative cAMP EC50, hGcgR;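 note: intracellular cAMP rise after 30 min at 37 °C, read by HTRF against a cAMP standard curve, scaled from buffer only (0%) to maximal control ligand response (100%)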
hGcgR, sequence (P47871 26-477): as the sequence (P47871 26-477) above
Procedure: After a 30-minute incubation at 37° C., the resulting increase in intracellular cAMP is quantitatively determined using the CisBio CAMP Dynamic 2 HTRF Assay Kit (62AM4PEJ). Briefly, cAMP levels within the cell are detected by adding the cAMP-d2 conjugate in cell lysis buffer followed by the antibody anti-cAMP-Eu^3+-Cryptate, also in cell lysis buffer.
Intracellular cAMP levels are determined by extrapolation using a standard curve. Dose response curves of compounds are plotted as the percentage of stimulation normalized to minimum (buffer only) and maximum (maximum concentration of each control ligand) values and analyzed using a four parameter non-linear regression fit with a variable slope (Genedata Screener 13). EC50 is the concentration of compound causing half-maximal simulation in a dose response curve. Each relative EC50 value for the Geometric mean calculation is determined from a curve fitting.

[5] = biological target: T2, hGIPR (Homo sapiens, UniProt P48546); test: Functional cAMP activity in the presence of 1% HSA; conditions: read-out: cAMP Rel EC50, hGIPR
T2 sequence (P48546 22-466): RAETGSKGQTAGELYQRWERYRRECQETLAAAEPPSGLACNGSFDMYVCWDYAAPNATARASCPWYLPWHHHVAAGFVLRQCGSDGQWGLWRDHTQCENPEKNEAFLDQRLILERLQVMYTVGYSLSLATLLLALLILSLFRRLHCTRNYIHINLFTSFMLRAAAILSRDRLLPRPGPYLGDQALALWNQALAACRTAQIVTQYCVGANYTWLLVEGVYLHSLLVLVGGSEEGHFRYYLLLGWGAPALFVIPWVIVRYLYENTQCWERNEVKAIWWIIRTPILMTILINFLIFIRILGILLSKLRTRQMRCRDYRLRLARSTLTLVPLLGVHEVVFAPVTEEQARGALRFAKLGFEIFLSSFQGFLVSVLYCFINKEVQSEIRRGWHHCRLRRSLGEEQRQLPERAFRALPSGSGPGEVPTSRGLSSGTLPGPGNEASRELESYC

[6] = biological target: T2, hGIPR; test: Functional cAMP activation in the presence of 0.1% casein (no HSA); conditions: read-out: Relative cAMP EC50, hGIPR;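 note: intracellular cAMP rise after 30 min at 37 °C read by HTRF against a standard curve, scaled between buffer alone (0%) and top control ligand concentration (100%), four-parameter fit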
[7] = in the presence of 0.1% casein (no HSA), geometric mean
[8] = 0.1% casein, no HSA, geometric mean

Molecule	EC50 ([1]; HEK-293 clonal cells expressing hGcgR, in the presence of 1% HSA, geometric mean of relative EC50)	EC50 [2, 7]	EC50 ([3]; HEK-293 clonal cells expressing hGLP-1R, in the presence of 1% HSA, geometric mean of relative EC50)	EC50 [4, 7]	EC50 ([5]; HEK-293 clonal cells expressing hGIPR, in the presence of 1% HSA, geometric mean of relative EC50)	EC50 [6, 7]	EC50 [1]	EC50 [3]	EC50 [5]	EC50 [2]	EC50 [4]	EC50 [6]	EC50 [2, 8]	EC50 [4, 8]	EC50 [6, 8]
CC[C@H](C)[C@H](NC(=O)[C@H](Cc1ccccc1)NC(=O)[C@H](CCCN)NC(=O)C(C)(C)NC(=O)[C@H](CCC(N)=O)NC(=O)[C@H](C)NC(=O)[C@H](CCCCNC(=O)COCCOCCNC(=O)CC[C@H](NC(=O)CCCCCCCCCCCCCCCCC(=O)O)C(=O)O)NC(=O)[C@H](CCCN)NC(=O)[C@H](CC(=O)O)NC(=O)[C@H](CC(C)C)NC(=O)[C@](C)(CC(C)C)NC(=O)[C@@H](NC(=O)[C@](C)(CO)NC(=O)[C@H](Cc1ccncc1)NC(=O)[C@H](CC(=O)O)NC(=O)[C@H](CO)NC(=O)[C@@H](NC(=O)[C@](C)(Cc1ccccc1F)NC(=O)[C@@H](NC(=O)CNC(=O)[C@H](CCC(N)=O)NC(=O)C(C)(C)NC(=O)[C@@H](N)Cc1ccc(O)cc1)[C@@H](C)O)[C@@H](C)O)[C@@H](C)CC)C(=O)N[C@H](CCC(=O)O)C(=O)N[C@@](C)(Cc1ccc(O)cc1)C(=O)N[C@@H](CC(C)C)C(=O)N[C@@H](CC(C)C)C(=O)N[C@@H](CCC(=O)O)C(=O)NCC(=O)NCC(=O)N1CCC[C@H]1C(=O)N[C@@H](CO)C(=O)N[C@@H](CO)C(=O)NC(C)(C)C(=O)N[C@@H](CCC(=O)O)C(=O)N1CCC[C@H]1C(=O)N1CCC[C@H]1C(=O)N1CCC[C@H]1C(=O)N[C@@H](CCC(=O)O)C(N)=O [Example 380] (H-Y[Aib]QGT[αMePhe(2-F)]TSD[4Pal][αMeS]I[αMeL]LD[Orn]K([AEEA-γGlu-C18 diacid])AQ[Aib][Orn]FI[dE][αMeY]LLEGGPSS[Aib]EPPPE-NH2)	150 nM	0.354 nM	30.6 nM	1.17 nM	7.77 nM	0.0346 nM	–	–	–	–	–	–	–	–	–
H-Y[Aib]QGTFTSDFS[Orn][αMeL]LDKK([AEEA-γGlu-C18 diacid])AQ[Aib]AFIEYLLAGGPSSGAPPPSGE[AEEA]-NH2 [Example 91]	–	3.39 nM	–	9.13 nM	–	0.243 nM	1200 nM	356 nM	23.9 nM	–	–	–	–	–	–
H-Y[Aib]QGT[αMePhe(2-F)]TSD[4Pal][αMeS]ILLD[Orn]K([γGlu-γGlu-C18 diacid])AQ[Aib][Orn]FI[dE]YLIEGGPSSGEPPPEGTEEE-NH2 [Example 577]	–	–	–	–	–	–	937 nM	81.8 nM	10 nM	0.931 nM	6.47 nM	0.103 nM	–	–	–
H-Y[Aib]QGTFTSDFS[Orn][αMeL]LDKK([AEEA-AEEA-γGlu-C18 diacid])AQ[Aib]AFIEYLLE[Aib]GPSSGAPPPEGS-NH2 [Example 194]	–	4.69 nM	–	4.32 nM	–	0.212 nM	813 nM	697 nM	19.7 nM	–	–	–	–	–	–
H-Y[Aib]QGT[αMePhe(2-F)]TSD[4Pal][αMeS]I[αMeL]LD[Orn]K([AEEA-γGlu-C18 diacid])AQ[αMe4Pal]EFI[dE][αMeY]LIEGGPPS[Aib][Orn]PPPEGE-NH2 [Example 1194]	–	–	–	–	–	–	215 nM	57.4 nM	0.759 nM	–	–	–	0.51 nM	2.02 nM	0.00725 nM
H-Y[Aib]QGT[αMePhe(2-F)]TSDYSILLDKK([γGlu-γGlu-C18 diacid])AQ[Aib]AFIEYLEEGGPSSGAPPPEEG-NH2 [Example 471]	–	–	–	–	–	–	181 nM	37.9 nM	5.45 nM	0.317 nM	2.19 nM	0.0296 nM	–	–	–
H-Y[Aib]QGTFTSD[4Pal]SQ[αMeL]LD[Orn]K([γGlu-γGlu-C18 diacid])AQ[αMe4Pal]AFIE[αMeY]LIEGGPSSGAPPPSGSEE-NH2 [Example 1043]	–	1.52 nM	–	17.1 nM	–	0.282 nM	2240 nM	268 nM	44.9 nM	–	–	–	–	–	–
CC[C@H](C)[C@H](NC(=O)[C@H](Cc1ccccc1)NC(=O)[C@H](C)NC(=O)[C@](C)(Cc1ccncc1)NC(=O)[C@H](CCC(N)=O)NC(=O)[C@H](C)NC(=O)[C@H](CCCCNC(=O)COCCOCCNC(=O)CC[C@H](NC(=O)CC[C@H](NC(=O)CCCCCCCCCCCCCCCCC(=O)O)C(=O)O)C(=O)O)NC(=O)[C@H](CCCCN)NC(=O)[C@H](CC(=O)O)NC(=O)[C@H](CC(C)C)NC(=O)[C@](C)(CC(C)C)NC(=O)[C@H](CCC(N)=O)NC(=O)[C@H](CO)NC(=O)[C@H](Cc1ccncc1)NC(=O)[C@H](CC(=O)O)NC(=O)[C@H](CO)NC(=O)[C@@H](NC(=O)[C@H](Cc1ccccc1)NC(=O)[C@@H](NC(=O)CNC(=O)[C@H](CCC(N)=O)NC(=O)C(C)(C)NC(=O)[C@@H](N)Cc1ccc(O)cc1)[C@@H](C)O)[C@@H](C)O)C(=O)N[C@@H](CCC(=O)O)C(=O)N[C@@H](Cc1ccc(O)cc1)C(=O)N[C@@H](CC(C)C)C(=O)N[C@H](C(=O)N[C@@H](CCC(=O)O)C(=O)N[C@H](C)C(=O)NCC(=O)N1CCC[C@H]1C(=O)N[C@@H](CO)C(=O)N[C@@H](CO)C(=O)NCC(=O)N[C@@H](C)C(=O)N1CCC[C@H]1C(=O)N1CCC[C@H]1C(=O)N1CCC[C@H]1C(=O)N[C@@H](CO)C(=O)NCC(=O)N[C@@H](CO)C(=O)N[C@@H](CCC(=O)O)C(N)=O)[C@@H](C)CC [Example 1024]	–	4.79 nM	–	10.6 nM	–	0.441 nM	760 nM	330 nM	32.5 nM	–	–	–	–	–	–
CC[C@H](C)[C@H](NC(=O)[C@H](Cc1ccccc1)NC(=O)[C@H](C)NC(=O)C(C)(C)NC(=O)[C@H](CCC(N)=O)NC(=O)[C@H](C)NC(=O)[C@H](CCCCNC(=O)COCCOCCNC(=O)CC[C@H](NC(=O)CCCCCCCCCCCCCCCCC(=O)O)C(=O)O)NC(=O)[C@H](CCCCN)NC(=O)[C@H](CC(=O)O)NC(=O)[C@H](CC(C)C)NC(=O)[C@](C)(CC(C)C)NC(=O)[C@@H](NC(=O)[C@H](CO)NC(=O)[C@H](Cc1ccc(O)cc1)NC(=O)[C@H](CC(=O)O)NC(=O)[C@H](CO)NC(=O)[C@@H](NC(=O)[C@](C)(Cc1ccccc1)NC(=O)[C@@H](NC(=O)CNC(=O)[C@H](CCC(N)=O)NC(=O)C(C)(C)NC(=O)[C@@H](N)Cc1ccc(O)cc1)[C@@H](C)O)[C@@H](C)O)[C@@H](C)CC)C(=O)N[C@@H](CCC(=O)O)C(=O)N[C@@H](Cc1ccc(O)cc1)C(=O)N[C@@H](CC(C)C)C(=O)N[C@@H](CCC(=O)O)C(=O)N[C@@H](CCC(=O)O)C(=O)NCC(=O)NCC(=O)N1CCC[C@H]1C(=O)N[C@@H](CO)C(=O)N[C@@H](CO)C(=O)NCC(=O)N[C@@H](C)C(=O)N1CCC[C@H]1C(=O)N1CCC[C@H]1C(=O)N1CCC[C@H]1C(=O)N[C@@H](CO)C(=O)N[C@@H](CCC(=O)O)C(=O)NCC(N)=O [Example 395]	–	–	–	–	–	–	1190 nM	34.7 nM	6.69 nM	0.349 nM	5.55 nM	0.0248 nM	–	–	–
H-Y[Aib]QGT[αMePhe(2-F)]TSDYSILLDKQAAK([AEEA-AEEA-γGlu-C20 diacid])EFIEYLIEGGPSSGEPPPSEG-NH2 [Example 348]	–	0.346 nM	–	3.9 nM	–	0.127 nM	1250 nM	136 nM	36.4 nM	–	–	–	–	–	–
H-Y[Aib]QGT[αMePhe(2-F)]TSDYSILLDKK([AEEA-γGlu-C18 diacid])AQ[Aib]AFIE[4Pal]LEEGGPSSGAPPPSEG-NH2 [Example 411]	–	–	–	–	–	–	1170 nM	82.1 nM	23.8 nM	0.709 nM	3.94 nM	0.058 nM	–	–	–
